{
  "source": "paper PMC6054100",
  "about": "“Exploring the chemical space of the lysine-binding pocket of the first kringle domain of hepatocyte growth factor/scatter factor (HGF/SF) yields a new class of inhibitors of HGF/SF-MET binding” (Chemical Science, 2015)",
  "key": {"NK1 [1]": {"target": "T1, NK1 (Homo sapiens, UniProt P14210)", "T1 sequence (P14210 32-210 isoform P14210-6 limits assumed)": "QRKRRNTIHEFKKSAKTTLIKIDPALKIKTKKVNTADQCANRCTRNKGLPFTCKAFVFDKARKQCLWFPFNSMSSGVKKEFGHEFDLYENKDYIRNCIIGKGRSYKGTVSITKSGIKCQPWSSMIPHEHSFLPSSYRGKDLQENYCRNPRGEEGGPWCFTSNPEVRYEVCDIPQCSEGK", "experiment": "Binding of lysine analogues to NK1 (unpublished data)", "settings": "A. G. S."}, "[2]": {"system": "MET downstream signalling (Erk 1/2, Akt) in Vero cells", "experiment": "MET, Erk1/2 and Akt phosphorylation assay in NK1-stimulated Vero cells (Western blot)", "assay_type": "cell-based", "settings": "Vero cells stimulated with NK1", "protocol": "We evaluated the effect of piperazine-like compounds and MB605 on Vero cells by assessing MET, Erk 1/2 and Akt phosphorylation in response to stimulation using […] NK1. MB605 was dissolved in DMSO, which limited the range of concentrations tested to ≤1 mM in order to avoid solvent effects on cell function/viability. The water-soluble piperazine-like compounds, in contrast, could be tested at concentrations up to 100 mM.\nFig. 6 Biological activity of the piperazine-like compounds and MB605. (a–e) Vero cells expressing the receptor endogenously on their cell surface were stimulated with HGF/SF or NK1 and phosphorylation of MET and downstream targets Akt and Erk1/2 was analysed. Piperazine-like compounds HEPES (a), (H)EPPS (b), MES (c), MOPS (d) and CAPS (e) were tested at 100 mM (lanes 4), 10 mM (lanes 5), 1 mM (lanes 6) and 100 μM (lanes 7) concentration in the presence of 1 nM NK1. To control for activating or inhibiting effects of the compounds independently of MET, piperazine-like compounds were tested on cells at 100 mM without stimulation by NK1 (lanes 3). Biological activity of MB605 (f) was investigated at 1 mM (lane 5), 100 μM (lane 6) and 10 μM (lane 7) in the presence of a constant concentration of DMSO (0.1%). A solvent control (0.1% DMSO, lane 3) was included in order to account for the effect of DMSO on the cells. A positive control (1 nM NK1 in the presence of 0.1% DMSO) is shown in lane 4. In all experiments, un-stimulated cells served as negative control (lanes 1) while cells stimulated with 1 nM NK1 served as positive control (lanes 2).\nThe ability of MB605 and the piperazine-like compounds to inhibit MET, Erk and Akt phosphorylation in the presence of NK1 was tested using mammalian Vero cells as described by Ferraris et al.[47] and further details are given in the ESI ^† section of the manuscript. […]\nFor MET, Erk1/2 and Akt phosphorylation assays, Vero cells were seeded at 2.1 × 10^5 cells we ll -1 (2 ml we ll -1) in 6-well plates and grown to 90% conf luence in 10% FCS/DMEM media and then switched to serum-free medium (to avoid any growth f actors present in the serum).\n24 hours post starvation the cells were stimulated for 5 min at 37°C with each individual piperazine -like compounds as well as with NK1 (1 nM) pre-incubated with different concentrations of the piperazine- like compounds (100 mM, 10 mM, 1 mM and 100 μM) or MB605 (1 mM, 100 μM and 10 μM). Stimulations with either 0. 1% DMS O or 1 nM of NK1 […]\nsolution were used as a negative and a positive control, respectively. The cells were then washed in PBS buffer, lysed on ice f or 30 min and frozen at -80 °C until further analysis. For"}, "[3]": {"target": "T2, lysine-binding pocket of the kringle domain of NK1 (Homo sapiens, UniProt P14210)", "T2 construct": "made in house; host or cells: Pichia pastoris", "T2 sequence (P14210 32-210 isoform P14210-6 limits assumed)": "as above", "experiment": "Soaking into NK1 apo crystals, X-ray crystallography", "settings": "soaked into NK1 apo crystals", "protocol": "Next, three classes of piperazine-like sulphonated compounds containing piperazine ((H)EPPS and PIPES), morpholine (MES and MOPS), or cyclohexane (CHES and CAPS) rings were studied for their binding to NK1 (Table 1), alongside another five sulphonated compounds selected from a chemical fragment library (Table 2).\nNK1 buffered in 150 mM NaCl, 50 mM Tris, pH 7.5 (apo-NK1 and all soaking experiments) was concentrated to ∼20 mg mL^–1 using a Vivaspin device with a 10 kDa cut-off membrane (Sartorius Biolab). Crystallisation was carried out in Linbro plates by the vapour diffusion hanging drop technique using a protein : precipitant ratio of 1 : 1 at 20 °C. Previously NK1 has been crystallised in 18% PEG 4000, 200 mM sodium acetate and 150 mM Tris pH 8.5 as precipitant.[19] Here final crystallisation conditions (19% PEG 4000, 200 mM sodium acetate and 150 mM Tris pH 7.5) were optimised around those to achieve high-resolution apo structure. Details of compound soaking, X-ray data collection and structure determination are given in the ESI ^† section of the manuscript. […]\nFor this, 1 M stock solutions were prepared in DMSO (fragments) or water (piperazine- like compounds) and the pH adjusted to a value within their buffering range with either HCl or NaOH. The seven piperazine- like compounds and their respective pH are: HEPES (pH 7.6), (H)EPPS (pH 7.4), PIPES (pH 7.0), MES (pH 5.8), MOPS (pH 7.2), CHES (pH 8.6) and CAPS (pH 9.7). Secondary stocks of the compounds at 50 mM were prepared in the […]\nrespective mother liquor and soaked for up to 48 hours.\nMB605 was solubilised in 50% DMSO at 20 mM concentration (1% f inal DMSO concentration in the drop) in order to minimize adverse effects of DMSO on the protein crystal. 25% ethylene glycol was used as the cryoprotective agent.\nX-ray data collection and processing\nX-ray datasets were collected either at the European Synchrotron Radiation Facility (ESRF, Grenoble, France), the Diamond Light Source (DLS, Oxford, UK) or in-house using the X8 PROTEUM (Bruker AXS) at the Department of Biochemistry, University of Cambridge.\nDatasets of at least 180° were collected. Raw data collected at synchrotrons were integrated, merged, scaled and reduced using DENZO and […].2 Raw data […]\ncollected in- house were integrated, merged, scaled and reduced using the PROTEUM 2 software package .3 The CCP4 suite of crystallographic programs (Collaborative"}, "NK1 [4]": {"target": "T1, NK1", "experiment": "SPR steady-state binding to immobilized NK1 (Biacore T100)", "set-up": "made in house; host or cells: Pichia pastoris", "settings": "steady-state binding constants; piperazine-like compounds; immobilized NK1, PBS pH 7.4; read-out: KD in SPR", "protocol": "Binding constants of piperazine-like compounds and fragments were determined using a Biacore T100 instrument. NK1 was immobilized on a CM5 chip by amine coupling to a density of 6000 RU. Compounds were stored as 100 mM stock solutions in water and serial dilutions were prepared in the running buffer (PBS pH 7.4, 0.05% Tween 20). The compound solutions were injected onto the surface of the chip at a flow rate of 30 μL min^–1, contact time was 1 min and dissociation time 1 min. Sensorgrams were analysed using the Biacore T100 evaluation software and the binding constants determined."}, "NK1 [5]": {"target": "T1, NK1", "experiment": "1H-15N TROSY-HSQC NMR chemical shift titration of 15N-labelled NK1", "assay_type": "binding", "set-up": "made in house; host or cells: Pichia pastoris", "settings": "steady-state binding constants; piperazine-like compounds; 0.18 mM NK1, pH 7.2, 310 K; read-out: KD in NMR", "protocol": "Ligand screening was performed by monitoring the chemical shift variations in ^1H-^15N TROSY-HSQC NMR spectra of the uniformly [^15N]-labelled NK1 protein (Fragai et al. 2015, in prep.) upon the addition of increasing concentrations of the investigated compounds.[43]–[45] The experiments were performed using 0.18 mM protein samples in 25 mM Tris, 100 mM NaCl and 0.01% sodium azide, at pH 7.2 with 10% D2O. The spectra were recorded at 310 K on a Bruker AVANCE 900 MHz spectrometer equipped with a TXI cryo-probe. Sample solutions were prepared from 1 M or 100 mM DMSO stock solutions of the ligands. The dissociation constant values (KD) were calculated by plotting the weighted average ^1H and ^15N chemical shifts of the residues experiencing significant variations as a function of ligand concentration added during the titration and considering the one site binding model.[46]"}, "NK1-MET complexes": {"system": "NK1-MET complexes", "set-up": "method as in Lauris Kemp, personal communication", "settings": "buffers containing 50 mM HEPES; ref Lauris Kemp, personal communication; cited from earlier work"}},
  "data": [
    {"compound": "NC[C@H]1CC[C@H](C(=O)O)CC1", "note": "[AMCHA, trans-4-(aminomethyl)cyclohexane-1-carboxylic acid]", "values": [
      {"measurement": "binding to NK1", "setting": "NK1 [1]", "value": "neither EACA or AMCHA binds NK1"}
    ]},
    {"compound": "NCCCCCC(=O)O", "note": "[EACA, ε-aminocaproic acid]", "values": [
      {"measurement": "binding to NK1", "setting": "NK1 [1]", "value": "neither EACA or AMCHA binds NK1"}
    ]},
    {"compound": "O=S(=O)(O)CCCNC1CCCCC1", "note": "[CAPS]", "values": [
      {"measurement": "Inhibition of phosphorylation of Erk 1/2 and Akt (S473)", "setting": "[2]; compound 10 mM (lane 5)", "value": "active"},
      {"measurement": "Inhibition of phosphorylation of Erk 1/2 and Akt (S473)", "setting": "[2]; compound 100 mM (lanes 4)", "value": "Inhibition of phosphorylation"},
      {"measurement": "binding in the lysine-binding pocket (crystal structure)", "setting": "[3]", "value": "bind the lysine-binding pocket of NK1"},
      {"measurement": "Kd", "setting": "NK1 [4]", "value": "1.2 ± 0.2", "unit": "mM"},
      {"measurement": "Kd", "setting": "NK1 [5]", "value": "1.4 ± 0.5", "unit": "mM"}
    ]},
    {"compound": "O=S(=O)(O)CCCN1CCOCC1", "note": "[MOPS]", "values": [
      {"measurement": "Inhibition of phosphorylation of Erk 1/2 and Akt (S473)", "setting": "[2]; compound 100 mM (lanes 4)", "value": "Inhibition of phosphorylation"},
      {"measurement": "binding in the lysine-binding pocket (crystal structure)", "setting": "[3]", "value": "bind the lysine-binding pocket of NK1"},
      {"measurement": "Kd", "setting": "NK1 [4]", "value": "7 ± 1", "unit": "mM"},
      {"measurement": "Kd", "setting": "NK1 [5]", "value": "4.7 ± 1.7", "unit": "mM"}
    ]},
    {"compound": "O=S(=O)(O)CCCN1CCN(CCO)CC1", "note": "[(H)EPPS]", "values": [
      {"measurement": "Inhibition of phosphorylation of Erk 1/2 and Akt (S473)", "setting": "[2]; compound 100 mM (lanes 4)", "value": "Inhibition of phosphorylation"},
      {"measurement": "Kd", "setting": "NK1 [4]", "value": "7 ± 1", "unit": "mM"},
      {"measurement": "Kd", "setting": "NK1 [5]", "value": "4.4 ± 1.8", "unit": "mM"}
    ]},
    {"compound": "O=S(=O)(O)CCN1CCN(CCO)CC1", "note": "[HEPES, 4-(2-hydroxyethyl)-1-piperazineethanesulfonic acid]", "values": [
      {"measurement": "Inhibition of phosphorylation of Erk 1/2 and Akt (S473)", "setting": "[2]; compound 100 mM (lanes 4)", "value": "Inhibition of phosphorylation"},
      {"measurement": "binding in the lysine-binding pocket (crystal structure)", "setting": "[3]", "value": "bound into the lysine-binding pocket"},
      {"measurement": "formation of NK1-MET complexes", "setting": "NK1-MET complexes", "value": "inhibited"},
      {"measurement": "Kd", "setting": "NK1 [4]", "value": "2.4 ± 0.4", "unit": "mM"},
      {"measurement": "Kd", "setting": "NK1 [5]", "value": "3.3 ± 0.4", "unit": "mM"}
    ]},
    {"compound": "O=S(=O)(O)CCN1CCOCC1", "note": "[MES]", "values": [
      {"measurement": "Inhibition of phosphorylation of Erk 1/2 and Akt (S473)", "setting": "[2]; compound 100 mM (lanes 4)", "value": "Inhibition of phosphorylation"},
      {"measurement": "binding in the lysine-binding pocket (crystal structure)", "setting": "[3]", "value": "bind the lysine-binding pocket of NK1"},
      {"measurement": "Kd", "setting": "NK1 [4]", "value": "24.3 ± 3.1", "unit": "mM"},
      {"measurement": "Kd", "setting": "NK1 [5]", "value": "13.4 ± 5.7", "unit": "mM"}
    ]}
  ]
}
